Source: PubChem BioAssay AID1919004 (Molecular Pharmacology Branch, DTP, NCI, 2023)

Tested on: 883617-216-R-J1-PDC complex spheroids, growth, % test/control
Experiment: Anticancer human tumor 883617-216-R-J1-PDC patient-derived bladder carcinoma cell line growth inhibition [AhR]
Conditions: for IC50: curve of first compound; for viability, T/C: stronger effect = lower value
Procedure, shortened: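 Complex tumor spheroids co-cultured with HUVEC and human MSC stroma; AhR antagonists tested in combination with standard-of-care and investigational agents. Top concentration at or near clinical Cmax (else 10 microM), half-log dilutions; growth expressed as percent test/control.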

[1] = second compound 0.1 µM, first compound 0.0316 µM
[2] = second compound 0.1 µM, first compound 0.1 µM
[3] = second compound 0.1 µM, first compound 0.316 µM
[4] = second compound 0.1 µM, first compound 1 µM
[5] = second compound 0.1 µM, first compound 3.16 µM
[6] = second compound 0.1 µM, first compound 10 µM
[7] = second compound 0.316 µM, first compound 0.0316 µM
[8] = second compound 0.316 µM, first compound 0.1 µM
[9] = second compound 0.316 µM, first compound 0.316 µM
[10] = second compound 0.316 µM, first compound 1 µM
[11] = second compound 0.316 µM, first compound 3.16 µM
[12] = second compound 0.316 µM, first compound 10 µM
[13] = second compound 1 µM, first compound 0.0316 µM
[14] = second compound 1 µM, first compound 0.1 µM
[15] = second compound 1 µM, first compound 0.316 µM
[16] = second compound 1 µM, first compound 1 µM
[17] = second compound 1 µM, first compound 3.16 µM
[18] = second compound 1 µM, first compound 10 µM
[19] = second compound 3.16 µM, first compound 0.0316 µM
[20] = second compound 3.16 µM, first compound 0.1 µM
[21] = second compound 3.16 µM, first compound 0.316 µM
[22] = second compound 3.16 µM, first compound 1 µM
[23] = second compound 3.16 µM, first compound 3.16 µM
[24] = second compound 3.16 µM, first compound 10 µM
[25] = second compound 10 µM, first compound 0.0316 µM
[26] = second compound 10 µM, first compound 0.1 µM
[27] = second compound 10 µM, first compound 0.316 µM
[28] = second compound 10 µM, first compound 1 µM
[29] = second compound 10 µM, first compound 3.16 µM
[30] = second compound 10 µM, first compound 10 µM
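Further: exposure lasted 7 days after dosing on day 3 of spheroid growth.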

For `CC(C)CC(NC(=O)C(Cc1ccccc1)NC(=O)c1cnccn1)B(O)O` (stereo not given) + Cc1ccccc1N=Nc1ccc(NC(=O)c2ccnn2C)c(C)c1, the IC50 (second compound 0.1 µM) was 7.48 nM, the IC50 (second compound 0.316 µM) was 7.89 nM and the IC50 (second compound 1 µM) was 7.56 nM. The IC50 (second compound 3.16 µM) was 7.93 nM, the IC50 (second compound 10 µM) was 9.89 nM and the viability, T/C (second compound 0.1 µM, first compound 0.000949 µM) was 85.9%. The viability, T/C (second compound 0.1 µM, first compound 0.003 µM) was 97.5%, the viability, T/C (second compound 0.1 µM, first compound 0.00949 µM) was 39.1% and the viability, T/C (second compound 0.1 µM, first compound 0.03 µM) was 0.08%. It also gave a viability, T/C (second compound 0.1 µM, first compound 0.0949 µM) of 0.03%, a viability, T/C (second compound 0.1 µM, first compound 0.3 µM) of 0.11% and a viability, T/C (second compound 0.316 µM, first compound 0.000949 µM) of 90.5%. The viability, T/C (second compound 0.316 µM, first compound 0.003 µM) was 92.7%, the viability, T/C (second compound 0.316 µM, first compound 0.00949 µM) was 42.1% and the viability, T/C (second compound 0.316 µM, first compound 0.03 µM) was 0.06%. The viability, T/C (second compound 0.316 µM, first compound 0.0949 µM) was 0.05%, the viability, T/C (second compound 0.316 µM, first compound 0.3 µM) was 0.11% and the viability, T/C (second compound 1 µM, first compound 0.000949 µM) was 84.8%. For the same compound, the viability, T/C (second compound 1 µM, first compound 0.003 µM) was 89.4%, the viability, T/C (second compound 1 µM, first compound 0.00949 µM) was 40.9% and the viability, T/C (second compound 1 µM, first compound 0.03 µM) was 0.08%. The viability, T/C (second compound 1 µM, first compound 0.0949 µM) was 0.03%, the viability, T/C (second compound 1 µM, first compound 0.3 µM) was 0.1% and the viability, T/C (second compound 3.16 µM, first compound 0.000949 µM) was 79.4%. It also gave a viability, T/C (second compound 3.16 µM, first compound 0.003 µM) of 88.2%, a viability, T/C (second compound 3.16 µM, first compound 0.00949 µM) of 43.8% and a viability, T/C (second compound 3.16 µM, first compound 0.03 µM) of 0.11%. It also gave a viability, T/C (second compound 3.16 µM, first compound 0.0949 µM) of 2.06%, a viability, T/C (second compound 3.16 µM, first compound 0.3 µM) of 0.76% and a viability, T/C (second compound 10 µM, first compound 0.000949 µM) of 78%. For the same compound, the viability, T/C (second compound 10 µM, first compound 0.003 µM) was 80.8%, the viability, T/C (second compound 10 µM, first compound 0.00949 µM) was 51.9% and the viability, T/C (second compound 10 µM, first compound 0.03 µM) was 0.17%. The viability, T/C (second compound 10 µM, first compound 0.0949 µM) was 0.62% and the viability, T/C (second compound 10 µM, first compound 0.3 µM) was 0.21%.

`COc1cc(Nc2ncc3c(n2)-c2ccc(Cl)cc2C(c2c(F)cccc2OC)=NC3)ccc1C(=O)O` + Cc1ccccc1N=Nc1ccc(NC(=O)c2ccnn2C)c(C)c1 showed an IC50 (second compound 0.1 µM) greater than 10000 nM, an IC50 (second compound 0.316 µM) greater than 10000 nM and an IC50 (second compound 1 µM) greater than 10000 nM. It also gave an IC50 (second compound 3.16 µM) greater than 10000 nM, an IC50 (second compound 10 µM) greater than 10000 nM and a viability, T/C [1] of 83.3%. For the same compound, the viability, T/C [2] was 78.7%, the viability, T/C [3] was 74.5% and the viability, T/C [4] was 63.2%. The viability, T/C [5] was 71.1%, the viability, T/C [6] was 63.6% and the viability, T/C [7] was 72.7%. For the same compound, the viability, T/C [8] was 83.1%, the viability, T/C [9] was 64.6% and the viability, T/C [10] was 62.6%. It also gave a viability, T/C [11] of 66.3%, a viability, T/C [12] of 63.2% and a viability, T/C [13] of 73.9%. The viability, T/C [14] was 73.7%, the viability, T/C [15] was 67.2% and the viability, T/C [16] was 72%. It also gave a viability, T/C [17] of 63.7%, a viability, T/C [18] of 53.7% and a viability, T/C [19] of 67.4%. The viability, T/C [20] was 76.3%, the viability, T/C [21] was 69.6% and the viability, T/C [22] was 62.1%. It also gave a viability, T/C [23] of 67%, a viability, T/C [24] of 56.4% and a viability, T/C [25] of 68.9%. It also gave a viability, T/C [26] of 67.7%, a viability, T/C [27] of 67.8% and a viability, T/C [28] of 61.3%. For the same compound, the viability, T/C [29] was 58.7% and the viability, T/C [30] was 50.8%.

Compound `NS(=O)(=O)OCC1CC(n2ccc3c(NC4CCc5ccccc54)ncnc32)CC1O` (stereo not given) + Cc1ccccc1N=Nc1ccc(NC(=O)c2ccnn2C)c(C)c1 has an IC50 (second compound 0.1 µM) of 2500 nM, an IC50 (second compound 0.316 µM) of 2350 nM and an IC50 (second compound 1 µM) of 2480 nM. The IC50 (second compound 3.16 µM) was 2480 nM, the IC50 (second compound 10 µM) was 2690 nM and the viability, T/C [1] was 143%. The viability, T/C [2] was 184%, the viability, T/C [3] was 253% and the viability, T/C [4] was 137%. For the same compound, the viability, T/C [5] was 37.4%, the viability, T/C [6] was 18.3% and the viability, T/C [7] was 131%. The viability, T/C [8] was 173%, the viability, T/C [9] was 240% and the viability, T/C [10] was 119%. It also gave a viability, T/C [11] of 30.9%, a viability, T/C [12] of 20.6% and a viability, T/C [13] of 127%. It also gave a viability, T/C [14] of 156%, a viability, T/C [15] of 256% and a viability, T/C [16] of 125%. It also gave a viability, T/C [17] of 39.3%, a viability, T/C [18] of 20.9% and a viability, T/C [19] of 121%. It also gave a viability, T/C [20] of 146%, a viability, T/C [21] of 233% and a viability, T/C [22] of 128%. It also gave a viability, T/C [23] of 37.4%, a viability, T/C [24] of 18.5% and a viability, T/C [25] of 118%. The viability, T/C [26] was 179%, the viability, T/C [27] was 210% and the viability, T/C [28] was 125%. It also gave a viability, T/C [29] of 43.6% and a viability, T/C [30] of 17.4%.

Work on `O=C(C=Cc1cccc(S(=O)(=O)Nc2ccccc2)c1)NO` + Cc1ccccc1N=Nc1ccc(NC(=O)c2ccnn2C)c(C)c1 yielded an IC50 (second compound 0.1 µM) of 1570 nM, an IC50 (second compound 0.316 µM) of 1730 nM and an IC50 (second compound 1 µM) of 1370 nM. It also gave an IC50 (second compound 3.16 µM) of 1530 nM, an IC50 (second compound 10 µM) of 1580 nM and a viability, T/C [1] of 86.6%. For the same compound, the viability, T/C [2] was 80%, the viability, T/C [3] was 77.1% and the viability, T/C [4] was 56.6%. The viability, T/C [5] was 36.6%, the viability, T/C [6] was 2.17% and the viability, T/C [7] was 89.2%. It also gave a viability, T/C [8] of 88.1%, a viability, T/C [9] of 77.6% and a viability, T/C [10] of 68%. It also gave a viability, T/C [11] of 32%, a viability, T/C [12] of 2.44% and a viability, T/C [13] of 76.7%. It also gave a viability, T/C [14] of 96.8%, a viability, T/C [15] of 69.1% and a viability, T/C [16] of 56.8%. The viability, T/C [17] was 31.2%, the viability, T/C [18] was 1.92% and the viability, T/C [19] was 70.9%. For the same compound, the viability, T/C [20] was 87.2%, the viability, T/C [21] was 73.3% and the viability, T/C [22] was 62.9%. For the same compound, the viability, T/C [23] was 28.2%, the viability, T/C [24] was 1.87% and the viability, T/C [25] was 74.6%. The viability, T/C [26] was 76.3%, the viability, T/C [27] was 68.1% and the viability, T/C [28] was 63.1%. For the same compound, the viability, T/C [29] was 32% and the viability, T/C [30] was 2.57%.
